According to ChEMBL document CHEMBL1201862, “PubChem BioAssay data set” (2004):
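Method: 48-hour compound exposure of cells in 96-well plates, five concentrations, linear interpolation of endpoints. GI50 = concentration required for 50% inhibition of growth.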 The source made the active and inactive calls. No stated cut-off is given here; in the data, active = GI50 up to about 1.1 µM and inactive = higher.

How the values were obtained:
Test in all cases: NCI anticancer screen, dose series, 48 h
A498 = tested on: A498
DU-145 = tested on: DU-145
HL-60 = tested on: HL-60
HOP-62 = tested on: HOP-62
Hs-578T = tested on: Hs-578T
MDA-MB-435 = tested on: MDA-MB-435
MOLT-4 = tested on: MOLT-4
Malme-3M = tested on: Malme-3M
NCI-H23 = tested on: NCI-H23
OVCAR-4 = tested on: OVCAR-4
SF-268 = tested on: SF-268
SF-539 = tested on: SF-539
SK-OV-3 = tested on: SK-OV-3
SR = tested on: SR
T47D = tested on: T47D
TK-10 = tested on: TK-10
UACC-257 = tested on: UACC-257
UO-31 = tested on: UO-31
SK-MEL-2 = tested on: SK-MEL-2

Measured: GI50

CCCCC1=CC1(C#N)[N+](=O)[O-] (stereo unspecified)
inactive: A498 76.2 µM | DU-145 > 100 µM | HL-60 > 10 µM | HOP-62 > 100 µM | Hs-578T > 100 µM | MDA-MB-435 > 100 µM | MOLT-4 23.3 µM | Malme-3M 53.6 µM | NCI-H23 > 100 µM | OVCAR-4 > 100 µM | SF-268 > 100 µM | SF-539 > 100 µM | SK-OV-3 > 100 µM | SR 33.3 µM | T47D > 100 µM | TK-10 > 100 µM | UACC-257 > 100 µM | UO-31 > 100 µM

O=c1c2ccccc2[nH]n1Cc1ccccc1
inactive: A498 > 100 µM | DU-145 > 100 µM | HL-60 > 100 µM | HOP-62 > 100 µM | Hs-578T > 100 µM | MDA-MB-435 > 100 µM | MOLT-4 > 100 µM | NCI-H23 > 100 µM | OVCAR-4 > 100 µM | SF-268 > 100 µM | SF-539 > 100 µM | SK-MEL-2 > 100 µM | SK-OV-3 > 100 µM | SR > 100 µM | T47D > 100 µM | TK-10 > 100 µM | UACC-257 > 100 µM | UO-31 > 100 µM

CN(C)c1ccc(/C=C/C(=O)N[C@@H]2C(=O)N3[C@@H]2SC(C)(C)[C@@H]3C(=O)O)cc1
inactive: A498 > 100 µM | DU-145 > 100 µM | HL-60 > 100 µM | HOP-62 > 100 µM | Hs-578T > 100 µM | MDA-MB-435 > 100 µM | MOLT-4 > 100 µM | NCI-H23 > 100 µM | OVCAR-4 > 100 µM | SF-268 > 100 µM | SF-539 > 100 µM | SK-MEL-2 > 100 µM | SR > 100 µM | T47D > 100 µM | TK-10 > 100 µM | UACC-257 > 100 µM | UO-31 > 100 µM

COc1cc(OC)c(OC)cc1/C=C1\C=Cc2ccccc21
inactive: A498 > 10 µM | DU-145 28.8 µM | HL-60 5.82 µM | HOP-62 15.9 µM | Hs-578T 22.9 µM | MDA-MB-435 5.32 µM | MOLT-4 6.31 µM | Malme-3M 23.1 µM | NCI-H23 18.8 µM | SF-268 17.1 µM | SF-539 15.2 µM | SK-MEL-2 > 10 µM | SK-OV-3 19.7 µM | SR 5.04 µM | T47D 7.89 µM | TK-10 17.3 µM | UACC-257 16.3 µM | UO-31 16.3 µM

Nc1ccnc2c1ncn2[C@H]1C[C@H](O)[C@@H](CO)O1
inactive: A498 > 100 µM | DU-145 > 100 µM | HL-60 > 100 µM | HOP-62 > 100 µM | Hs-578T > 100 µM | MDA-MB-435 > 100 µM | MOLT-4 > 100 µM | NCI-H23 > 100 µM | OVCAR-4 > 100 µM | SF-268 > 100 µM | SF-539 > 100 µM | SK-MEL-2 > 100 µM | SR > 100 µM | T47D > 100 µM | TK-10 > 100 µM | UACC-257 > 100 µM | UO-31 > 100 µM

O=C(O)c1cc(CCc2ccc(O)c(O)c2)ccc1O
inactive: A498 > 100 µM | DU-145 > 100 µM | HL-60 23.2 µM | HOP-62 > 100 µM | Hs-578T > 100 µM | MDA-MB-435 > 100 µM | MOLT-4 > 100 µM | Malme-3M > 100 µM | NCI-H23 > 100 µM | SF-268 > 100 µM | SF-539 > 100 µM | SK-MEL-2 > 100 µM | SK-OV-3 > 100 µM | SR 24.4 µM | T47D > 100 µM | UACC-257 > 100 µM | UO-31 > 100 µM

Cc1cc2cc3c(Cl)c(CCCl)c(C)nc3cc2c(Cl)c1CCCl
inactive: A498 19.2 µM | DU-145 21.6 µM | HL-60 11.5 µM | HOP-62 13.8 µM | Hs-578T 9.84 µM | MDA-MB-435 15.6 µM | MOLT-4 16 µM | Malme-3M 20.8 µM | NCI-H23 21.8 µM | OVCAR-4 18.1 µM | SF-268 11.2 µM | SF-539 12.1 µM | SR 11.3 µM | T47D 15.8 µM | TK-10 23.6 µM | UACC-257 18 µM | UO-31 16.1 µM

O=C(NCCN1CCCCC1)c1ccc(Br)cc1
inactive: A498 42.8 µM | DU-145 > 100 µM | HL-60 2.81 µM | HOP-62 > 100 µM | Hs-578T > 100 µM | MDA-MB-435 > 100 µM | MOLT-4 > 100 µM | Malme-3M > 100 µM | NCI-H23 > 100 µM | OVCAR-4 > 100 µM | SF-268 > 100 µM | SK-MEL-2 > 100 µM | SK-OV-3 > 100 µM | SR > 100 µM | T47D > 100 µM | TK-10 > 100 µM | UACC-257 > 100 µM | UO-31 > 100 µM

O=c1[nH]c(=O)n(C/C=C/CBr)nc1Br
inactive: A498 13.5 µM | DU-145 > 100 µM | HL-60 5.87 µM | HOP-62 21.9 µM | Hs-578T 19 µM | MDA-MB-435 13.6 µM | MOLT-4 16 µM | Malme-3M 14.2 µM | NCI-H23 12.6 µM | OVCAR-4 10.4 µM | SF-268 14.1 µM | SF-539 14 µM | SK-MEL-2 12.6 µM | SR 3.08 µM | T47D 12.6 µM | TK-10 17.7 µM | UACC-257 12.3 µM | UO-31 18.5 µM

COc1cc2c(cc1OCc1ccccc1)NC(=S)[C@@H]1CCCN1C2=S
inactive: A498 > 100 µM | DU-145 > 100 µM | HOP-62 5.85 µM | Hs-578T 4.84 µM | MDA-MB-435 > 100 µM | MOLT-4 > 100 µM | Malme-3M 71.6 µM | NCI-H23 > 100 µM | OVCAR-4 4.09 µM | SF-268 > 100 µM | SF-539 17.4 µM | SK-MEL-2 > 100 µM | SK-OV-3 > 100 µM | SR 48.5 µM | T47D 82.4 µM | TK-10 > 100 µM | UACC-257 > 100 µM | UO-31 > 100 µM

O=C(OCc1ccccc1)N1CCNCCNCC1
inactive: A498 > 100 µM | DU-145 > 100 µM | HL-60 > 100 µM | HOP-62 > 100 µM | Hs-578T > 100 µM | MDA-MB-435 > 100 µM | MOLT-4 > 100 µM | NCI-H23 > 100 µM | OVCAR-4 > 100 µM | SF-268 > 100 µM | SF-539 > 100 µM | SK-MEL-2 > 100 µM | SR > 100 µM | T47D > 100 µM | TK-10 > 100 µM | UACC-257 > 100 µM | UO-31 > 100 µM

CCOC1CC(=O)c2c(Br)sc(Br)c21 (stereo unspecified)
inactive: A498 32.4 µM | DU-145 18 µM | HL-60 20.4 µM | HOP-62 18.5 µM | Hs-578T 37.8 µM | MDA-MB-435 17.5 µM | MOLT-4 14.3 µM | Malme-3M 23.1 µM | NCI-H23 17.9 µM | SF-268 28.6 µM | SF-539 26.4 µM | SK-MEL-2 17.5 µM | SK-OV-3 16.5 µM | SR 21.7 µM | T47D 19.9 µM | TK-10 20.7 µM | UACC-257 16.9 µM | UO-31 18.2 µM
